From the supplement of paper PMC4862054

Legend:
DU-4475 [1] = assay: normalised viability (% of control), CellTiter-Blue; higher = more viable cells (about 100 = DMSO control); conditions: 1000 nM; incubation time: 72 h
Description: (§1)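 DSRT, CellTiter-Blue viability, 72 h incubation. Signal is normalised to DMSO and benzethonium chloride controls. Value is the normalised response at dose 7.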

HDQ-P1 [2] = assay: as above; conditions: 1000 nM; incubation time: 72 h
Description: as §1

MDA-MB-453 [3] = assay: as above; conditions: 1000 nM; incubation time: 72 h
Description: as §1

CAL-51 [4] = assay: as above; conditions: 1000 nM; incubation time: 72 h
Description: as §1

CAL-85-1 [5] = assay: as above; conditions: 1000 nM; incubation time: 72 h
Description: as §1

CAL-148 [6] = assay: as above; conditions: 1000 nM; incubation time: 72 h
Description: as §1

CAL-51 [7] = assay: normalised viability (% of control), CellTiter-Blue; higher = more viable cells (about 100 = DMSO control); conditions: 10000 nM; incubation time: 72 h
In short: (§2)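 Compound dissolved in 5 µl medium was pre-loaded into 384-well plates, and breast cancer cell lines in 20 µl suspension were seeded on top and incubated 72 h. After adding 2.5 µl CellTiter-Blue reagent for 2 h at 37 °C, fluorescence was read at 560/590 nm. Plates were normalised to vehicle (100) and a positive kill control (0), with Z'-factor quality control. Each value is normalised viability at a single listed concentration from the series.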

CAL-85-1 [8] = assay: as above; conditions: 10000 nM; incubation time: 72 h
In short: as §2

CAL-148 [9] = assay: as above; conditions: 10000 nM; incubation time: 72 h
In short: as §2

Hs578T = assay: normalised viability (% of control), CellTiter-Blue; higher = more viable cells (about 100 = DMSO control); conditions: 100 nM; incubation time: 72 h
Description: (§3)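 DSRT, CellTiter-Blue viability, 72 h incubation. Signal is normalised to DMSO and benzethonium chloride controls. Value is the normalised response at dose 3.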

MDA-MB-436 = assay: as above; conditions: 100 nM; incubation time: 72 h
Description: as §3

DU-4475 [10] = assay: as above; conditions: 10 nM; incubation time: 72 h
Description: as §3

BT-549 = assay: as above; conditions: 100 nM; incubation time: 72 h
Description: as §3

CAL-120 [11] = assay: as above; conditions: 100 nM; incubation time: 72 h
Description: as §3

HDQ-P1 [12] = assay: as above; conditions: 10 nM; incubation time: 72 h
Description: as §3

MDA-MB-231 = assay: as above; conditions: 100 nM; incubation time: 72 h
Description: as §3

HCC1143 = assay: as above; conditions: 100 nM; incubation time: 72 h
Description: as §3

MDA-MB-453 [13] = assay: as above; conditions: 10 nM; incubation time: 72 h
Description: as §3

HCC1937 = assay: as above; conditions: 100 nM; incubation time: 72 h
Description: as §3

CAL-51 [14] = assay: as above; conditions: 10 nM; incubation time: 72 h
Description: as §3

MDA-MB-468 = assay: as above; conditions: 100 nM; incubation time: 72 h
Description: as §3

MFM-223 = assay: as above; conditions: 100 nM; incubation time: 72 h
Description: as §3

BT-474 = assay: as above; conditions: 100 nM; incubation time: 72 h
Description: as §3

CAL-85-1 [15] = assay: as above; conditions: 10 nM; incubation time: 72 h
Description: as §3

SK-BR-3 [16] = assay: as above; conditions: 100 nM; incubation time: 72 h
Description: as §3

HCC1599 = assay: as above; conditions: 100 nM; incubation time: 72 h
Description: as §3

CAL-148 [17] = assay: as above; conditions: 10 nM; incubation time: 72 h
Description: as §3

CAL-120 [18] = assay: drug sensitivity score (DSS), CellTiter-Glo (DSS (AUC-based score)); higher = stronger drug effect (viability inhibition or cytotoxicity); extreme values may be limits of the assay; conditions: incubation time: 72 h
In short: (§4)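 Plates with 384 wells held compound at 5 concentrations in 10-fold steps over a 10,000-fold range specific to each compound. Breast cancer cell lines were added in 20 µl suspension and incubated 72 h, then read for CellTox Green and CellTiter-Glo signals, with each plate normalised to 0.1 % DMSO and a positive kill control. The drug sensitivity score is based on the area under the fitted dose-response curve.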

CAL-51 [19] = assay: as above; conditions: incubation time: 72 h
In short: as §4

SK-BR-3 [20] = assay: as above; conditions: incubation time: 72 h
In short: as §4

Row | SMILES | normalised viability (DU-4475 [1]) [%] | normalised viability (HDQ-P1 [2]) [%] | normalised viability (MDA-MB-453 [3]) [%] | normalised viability (CAL-51 [4]) [%] | normalised viability (CAL-85-1 [5]) [%] | normalised viability (CAL-148 [6]) [%] | normalised viability (CAL-51 [7]) [%] | normalised viability (CAL-85-1 [8]) [%] | normalised viability (CAL-148 [9]) [%] | normalised viability (Hs578T) [%] | normalised viability (MDA-MB-436) [%] | normalised viability (DU-4475 [10]) [%] | normalised viability (BT-549) [%] | normalised viability (CAL-120 [11]) [%] | normalised viability (HDQ-P1 [12]) [%] | normalised viability (MDA-MB-231) [%] | normalised viability (HCC1143) [%] | normalised viability (MDA-MB-453 [13]) [%] | normalised viability (HCC1937) [%] | normalised viability (CAL-51 [14]) [%] | normalised viability (MDA-MB-468) [%] | normalised viability (MFM-223) [%] | normalised viability (BT-474) [%] | normalised viability (CAL-85-1 [15]) [%] | normalised viability (SK-BR-3 [16]) [%] | normalised viability (HCC1599) [%] | normalised viability (CAL-148 [17]) [%] | drug sensitivity score (CAL-120 [18]) | drug sensitivity score (CAL-51 [19]) | drug sensitivity score (SK-BR-3 [20])
1 | O=C(Cc1ccc(-c2ccc(OCCN3CCOCC3)cc2)cn1)NCc1ccccc1 [KX2-391] | 9.93 | 45.1 | 25 | 11.1 | 33.9 | 18.4 | 12.5 | 45.4 | 34.2 | 20.7 | 59.9 | 94.4 | 27.8 | 27.6 | 108 | 26.1 | 33 | 107 | 25.1 | 101 | 47.6 | 52.8 | 63.5 | 88.1 | 19.3 | 88 | 89.1 | 11 | 25.9 | 27.5
2 | O=C(O)C(=O)O.[NH-][C@@H]1CCCC[C@H]1[NH-].[Pt+2] [Oxaliplatin] | 104 | 97.9 | 109 | 91.1 | 93.2 | 125 | 39 | 66.5 | 18.1 | 95.7 | 96.1 | 95.9 | 89.1 | 91 | 119 | 89 | 98.2 | 114 | 89.1 | 103 | 107 | 91.8 | 127 | 92 | 94 | 96.1 | 127 | 0 | 0 | 0
3 | CCCS(=O)(=O)Nc1ccc(F)c(C(=O)c2c[nH]c3ncc(-c4ccc(Cl)cc4)cc23)c1F [Vemurafenib] | 25.6 | 90.5 | 87.2 | 93.2 | 83.8 | 93.9 | 103 | 78.3 | 94.1 | 110 | 81.6 | 107 | 98.2 | 92.7 | 87.6 | 94.6 | 80.1 | 107 | 96.4 | 97.1 | 104 | 87.5 | 111 | 98.6 | 96.9 | 98 | 98.1 | 0 | 2.75 | 0
4 | COc1cc([C@@H]2c3cc4c(cc3[C@@H](O[C@@H]3O[C@@H]5CO[C@@H](c6cccs6)O[C@H]5[C@H](O)[C@H]3O)[C@H]3COC(=O)[C@H]23)OCO4)cc(OC)c1O [Teniposide] | 5.16 | 82.3 | 73.1 | 24.4 | 64.6 | 30.3 | 3.14 | 26.4 | 0.81 | 71.5 | 81.8 | 67.2 | 70.9 | 75.2 | 106 | 81.8 | 79.4 | 111 | 61.4 | 95 | 79.8 | 101 | 105 | 101 | 52.3 | 87.8 | 95.5 | 6.56 | 12.1 | 20.3
5 | Cc1ccc(-c2cc(C(F)(F)F)nn2-c2ccc(S(N)(=O)=O)cc2)cc1 [Celecoxib] | 110 | 83.2 | 103 | 93.5 | 69.9 | 75.5 | 90.6 | 63.4 | 55.1 | 83.1 | 92.3 | 96.9 | 108 | 91.1 | 109 | 89 | 95.9 | 103 | 94.9 | 100 | 111 | 88.4 | 110 | 76.9 | 83.3 | 90.2 | 97.2 | 0 | 0 | 0
6 | C[C@H]1C[C@@H]2[C@H]([C@@H](O)C[C@@]3(C)[C@H]2CC[C@]3(O)C(=O)CO)[C@@]2(C)C=CC(=O)C=C12 [Methylprednisolone] | 104 | 109 | 69.3 | 102 | 97 | 108 | 92.5 | 91 | 106 | 85.3 | 94.6 | 101 | 111 | 79.8 | 116 | 120 | 86.6 | 100 | 97.7 | 101 | 96.6 | 81.1 | 119 | 114 | 82.5 | 108 | 91.3 | 6.14 | 0 | 0
7 | Oc1ncc(N(CCCl)CCCl)c(O)n1 [Uracil mustard] | 96.2 | 117 | 101 | 89.6 | 93.8 | 111 | 91.6 | 93.9 | 105 | 116 | 102 | 98.6 | 111 | 87.7 | 107 | 100 | 84.8 | 107 | 105 | 98.6 | 108 | 90.6 | 106 | 103 | 88.2 | 83.5 | 95.8 | 0 | 0 | 0
8 | COc1cc2nccc(Oc3ccc(NC(=O)Nc4cc(C)on4)c(Cl)c3)c2cc1OC [Tivozanib] | 124 | 72.5 | 91.7 | 90.3 | 98.3 | 98.7 | 40.7 | 82.9 | 96.8 | 91.5 | 88.1 | 115 | 90.4 | 106 | 79 | 91.1 | 113 | 94.5 | 88.2 | 99 | 96.8 | 80.8 | 112 | 103 | 105 | 119 | 95.6 | 0 | 0 | 0
